Laboratory results published in patent US10059688B2, “Protein tyrosine kinase modulators and methods of use” (BETTA PHARMACEUTICALS CO., LTD., priority 2013, dated 2018).

Assays:
ALK (h) = ALK (h) (Homo sapiens (Human), UniProt Q9UM73); experiment: Kinase assay, single dose inhibition (Millipore, 33P-ATP filter binding); type: biochemical; details: 0.1 μM test compound, 10 μM ATP; remaining activity relative to DMSO control = 100%
Method: (§1) Assay conditions included 10 μM ATP and 100 nM test compounds.
(§2) All reactions are initiated by the addition of the MgATP mix. After incubation for 40 minutes at room temperature, the reaction is stopped by the addition of 3% phosphoric acid solution. 10 μL of the reaction is then spotted onto a P30 filtermat and washed three times for 5 minutes in 75 mM phosphoric acid and once in methanol prior to drying and scintillation counting. This assay is performed by Millipore. The experiment is carried out in duplicate. The value for the control sample (DMSO) was set to 100%, and the values for the compound-treated samples were expressed as activity relative to the control sample.

EGFR (h) = EGFR (h) (Homo sapiens (Human), UniProt P00533); experiment: as above; type: biochemical; details: 0.1 μM test compound, 10 μM ATP; remaining activity relative to DMSO control = 100%
EGFR (L858R) (h) = EGFR (L858R) (h) (Homo sapiens (Human), UniProt P00533, L858R); experiment: as above; type: biochemical; details: 0.1 μM test compound, 10 μM ATP; remaining activity relative to DMSO control = 100%
EGFR (T790M) (h) = EGFR (T790M) (h) (Homo sapiens (Human), UniProt P00533, T790M); experiment: as above; type: biochemical; details: 0.1 μM test compound, 10 μM ATP; remaining activity relative to DMSO control = 100%
Method: as §1, §2

EGFR (T790M, L858R) (h) = EGFR (T790M, L858R) (h) (Homo sapiens (Human), UniProt P00533, L858R/T790M); experiment: as above; type: biochemical; details: 0.1 μM test compound, 10 μM ATP; remaining activity relative to DMSO control = 100%
[1] = system: H1975 (EGFR L858R/T790M) NSCLC cells; experiment: Cell proliferation assay (MTS cell viability); type: cell-based; details: H1975 cells, 3 days of exposure, MTS
[2] = system: HCC827 (EGFR Del) NSCLC cells; experiment: Cell proliferation assay (MTS cell viability); type: cell-based; details: HCC827 cells, 3 days of exposure, MTS
Method: (§3) Effects of test compounds on in vitro proliferation were measured by MTS cell viability assay.
(§4) Prepare test compounds in each well with a final medium volume of 200 μl;
Incubate for 3 days of exposure;
(§5) Prepare reagents following the instructions in the Cell Proliferation Assay kit (Promega);
(§6) Change to serum-free medium with a final volume of 100 l/well. Prepare a set of wells with medium only for background subtraction;
(§7) Add 20 μl MTS solution containing PMS to each well (final concentration of MTS will be 0.33 mg/ml);
(§8) Incubate 1 to 4 hours at 37° C. in a humidified, 5% CO2 atmosphere.
(§9) Record absorbance at 490 nm using VICTOR™ X5 plate reader (PerkinElmer).
(§10) All experimental points were set up in three wells and all experiments were repeated at least three times.

[3] = system: A549 (EGFR WT) NSCLC cells; experiment: Cell proliferation assay (MTS cell viability); type: cell-based; details: A549 cells, 3 days of exposure, MTS
Method: as §3
A549 cells were maintained in Ham's F12K medium (Gibco) supplemented with 10% FBS, 100 units/mL penicillin, 100 units/mL streptomycin, and 2 mM glutamine.
as §4
Incubate for 3 days of exposure;
as §5, §6, §7, §8, §9, §10

A431 (EGFR WT) cells = experiment: Cell proliferation assay (MTS cell viability); type: cell-based; details: 3 days of exposure
Method: as §3
A431 cells were maintained in DMEM (Gibco) supplemented with 10% FBS, 100 units/mL penicillin, 100 units/mL streptomycin, and 2 mM glutamine.
as §4
Incubate for 3 days of exposure;
as §5, §6, §7, §8, §9, §10

ALK = ALK (Homo sapiens (Human), UniProt Q9UM73); experiment: Kinase assay (IC50), fluorescence peptide assay; type: biochemical; details: 10 pt curve, 1 μM top concentration, Km ATP
Method: 2.5 μL—4× Test Compound or 100 nL 100× plus 2.4 μL kinase buffer;
5 μL—2× Peptide/Kinase Mixture;
5 μL—Development Reagent Solution;
60-minute Development Reaction incubation at room temperature;
Read on fluorescence plate reader and analyze the data.

[4] = system: activated and resistant T790M forms of EGFR; EGFR WT; experiment: In vitro cellular assays, statements across cell lines; type: cell-based; details: result in words
Method: as §3

Chain of ALK (h) (Q9UM73 19-1620): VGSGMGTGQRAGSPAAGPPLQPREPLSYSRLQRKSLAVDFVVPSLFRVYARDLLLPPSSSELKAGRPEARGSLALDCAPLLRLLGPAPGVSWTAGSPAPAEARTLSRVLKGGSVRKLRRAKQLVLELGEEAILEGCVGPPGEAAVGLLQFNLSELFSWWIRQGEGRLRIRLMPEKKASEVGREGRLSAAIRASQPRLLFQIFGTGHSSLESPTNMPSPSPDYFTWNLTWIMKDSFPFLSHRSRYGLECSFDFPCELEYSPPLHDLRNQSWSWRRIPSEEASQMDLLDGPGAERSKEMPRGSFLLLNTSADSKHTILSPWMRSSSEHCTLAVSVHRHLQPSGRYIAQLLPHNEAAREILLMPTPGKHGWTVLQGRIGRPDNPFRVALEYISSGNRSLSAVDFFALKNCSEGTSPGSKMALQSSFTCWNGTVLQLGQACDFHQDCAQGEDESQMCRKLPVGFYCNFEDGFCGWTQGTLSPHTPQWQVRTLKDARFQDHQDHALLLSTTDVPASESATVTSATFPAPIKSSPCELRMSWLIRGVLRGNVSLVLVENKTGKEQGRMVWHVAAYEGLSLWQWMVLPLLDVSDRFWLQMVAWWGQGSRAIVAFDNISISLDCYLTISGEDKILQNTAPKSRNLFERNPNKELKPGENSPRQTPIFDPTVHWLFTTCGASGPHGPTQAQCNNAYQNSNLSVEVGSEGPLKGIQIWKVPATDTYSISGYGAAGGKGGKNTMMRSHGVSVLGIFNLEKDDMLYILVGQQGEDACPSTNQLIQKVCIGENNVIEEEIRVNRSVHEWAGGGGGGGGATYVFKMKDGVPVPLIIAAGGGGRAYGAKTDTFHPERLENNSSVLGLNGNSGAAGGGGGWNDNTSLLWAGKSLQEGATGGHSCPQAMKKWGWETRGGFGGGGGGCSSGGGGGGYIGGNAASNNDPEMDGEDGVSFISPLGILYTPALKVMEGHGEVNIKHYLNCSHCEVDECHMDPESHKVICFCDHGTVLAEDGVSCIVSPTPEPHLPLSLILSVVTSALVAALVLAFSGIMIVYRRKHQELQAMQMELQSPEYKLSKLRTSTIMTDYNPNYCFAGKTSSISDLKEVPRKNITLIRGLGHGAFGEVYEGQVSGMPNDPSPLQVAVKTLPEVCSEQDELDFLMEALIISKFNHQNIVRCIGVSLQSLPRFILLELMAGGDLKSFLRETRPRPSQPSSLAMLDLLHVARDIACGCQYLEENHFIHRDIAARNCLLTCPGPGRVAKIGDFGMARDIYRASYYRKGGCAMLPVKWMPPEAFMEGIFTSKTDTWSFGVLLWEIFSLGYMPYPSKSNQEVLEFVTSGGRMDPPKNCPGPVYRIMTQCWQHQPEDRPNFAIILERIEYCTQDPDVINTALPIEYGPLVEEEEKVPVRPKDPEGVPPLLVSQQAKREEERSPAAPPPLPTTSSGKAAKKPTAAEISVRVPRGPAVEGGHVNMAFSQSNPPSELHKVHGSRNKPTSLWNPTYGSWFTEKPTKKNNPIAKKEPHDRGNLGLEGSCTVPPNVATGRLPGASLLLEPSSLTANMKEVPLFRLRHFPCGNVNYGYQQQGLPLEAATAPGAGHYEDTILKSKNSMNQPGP
Chain of ALK (Q9UM73 19-1620): as above

Compound	Activity (control) % ALK (h) (ALK (h)) [%]	Activity (control) % EGFR (h) (EGFR (h)) [%]	Activity (control) % EGFR (L858R) (h) (EGFR (L858R) (h)) [%]	Activity (control) % EGFR (T790M) (h) (EGFR (T790M) (h)) [%]	Activity (control) % EGFR (T790M, L858R) (h) (EGFR (T790M, L858R) (h)) [%]	IC50 ([1]; Homo sapiens, NCI-H1975, 72 h) [nM]	IC50 ([2]; Homo sapiens, 72 h) [nM]	IC50 ([3]; Homo sapiens, 72 h) [nM]	IC50 (A431 (EGFR WT) cells; Homo sapiens, A-431, 72 h) [nM]	IC50 (ALK) [nM]	activity against both activated and resistant T790M forms of EGFR in vitro cellular assays [4]	IC50 [1] [nM]	IC50 [2] [nM]	IC50 [3] [nM]	IC50 (A431 (EGFR WT) cells) [nM]
COc1cc(N2CCC(N(C)C)CC2)ccc1Nc1ncc(Cl)c(Nc2ccccc2C(=O)C(N)=O)n1 [Example 4, 2-(2-(5-chloro-2-(4-(4-(dimethylamino)piperidin-1-yl)-2-methoxyphenylamino)pyrimidin-4-ylamino)phenyl)-2-oxoacetamide]	8	65	8	4	2	> 3000	2630	> 3000	–	–	–	–	–	–	–
COc1cc(N2CCC(N(C)C)CC2)ccc1Nc1ncc(Cl)c(Nc2ccccc2C(=O)C(=O)N(C)C)n1 [Example 17, 2-(2-((5-chloro-2-((4-(4-(dimethylamino)piperidin-1-yl)-2-methoxyphenyl)amino)pyrimidin-4-yl)amino)phenyl)-N,N-dimethyl-2-oxoacetamide]	–	–	–	–	–	860	1230	> 3000	260	–	–	–	–	–	–
C=CC(=O)Nc1cccc(Nc2ncc(Cl)c(Nc3ccccc3C(=O)C(=O)N(C)C)n2)c1 [Example 40, N-(3-(5-chloro-4-(2-(2-(dimethylamino)-2-oxoacetyl)phenylamino)pyrimidin-2-ylamino)phenyl)acrylamide]	28	106	103	79	24	10	70	640	–	–	–	–	–	–	–
COc1cc(N2CCN(C(C)=O)CC2)ccc1Nc1ncc(Cl)c(Nc2ccccc2C(=O)C(=O)N(C)C)n1 [Example 53, 2-(2-(2-(4-(4-acetylpiperazin-1-yl)-2-methoxyphenylamino)-5-chloropyrimidin-4-ylamino)phenyl)-N,N-dimethyl-2-oxoacetamide]	–	109	60	21	4	210	540	> 3000	50	–	–	–	–	–	–
COc1cc(Nc2ncc(Cl)c(Nc3ccccc3C(=O)C(=O)N(C)C)n2)ccc1N1CCN(C)CC1 [Example 61, 2-(2-(5-chloro-2-(3-methoxy-4-(4-methylpiperazin-1-yl)phenylamino)pyrimidin-4-ylamino)phenyl)-N,N-dimethyl-2-oxoacetamide]	5	101	70	54	13	–	–	–	–	12.2	–	–	–	–	–
C=CC(=O)Nc1cc(Nc2ncc(Cl)c(Nc3ccccc3C(=O)C(=O)NC)n2)ccc1OC [Example 64, N-(5-(5-chloro-4-(2-(2-(methylamino)-2-oxoacetyl)phenylamino)pyrimidin-2-ylamino)-2-methoxyphenyl)acrylamide]	47	106	100	79	39	90	450	> 3000	–	–	–	–	–	–	–
C=CC(=O)Nc1cc(Nc2ncc(Cl)c(Nc3ccccc3C(=O)C(=O)N(C)C)n2)ccc1OC [Example 65, N-(5-(5-chloro-4-(2-(2-(dimethylamino)-2-oxoacetyl)phenylamino)pyrimidin-2-ylamino)-2-methoxyphenyl)acrylamide]	19	118	102	80	25	20	120	> 3000	–	–	potent activity	–	–	–	–
C=CC(=O)Nc1cc(Nc2ncc(Cl)c(Nc3ccccc3C(=O)C(=O)N(C)C)n2)c(OC)cc1F [Example 66, N-(5-(5-chloro-4-(2-(2-(dimethylamino)-2-oxoacetyl)phenylamino)pyrimidin-2-ylamino)-2-fluoro-4-methoxyphenyl)acrylamide]	35	107	104	66	24	50	120	> 3000	–	–	potent activity	–	–	–	–
C=C(CN1CCOCC1)C(=O)Nc1cccc(Nc2ncc(Cl)c(Nc3ccccc3C(=O)C(=O)N(C)C)n2)c1 [Example 112, N-(3-(5-chloro-4-(2-(2-(dimethylamino)-2-oxoacetyl)phenylamino)pyrimidin-2-ylamino)phenyl)-2-(morpholinomethyl)acrylamide]	21	85	66	14	1	10	30	40	100	–	potent activity	–	–	–	–
C=C(CN(C)CCN(C)C)C(=O)Nc1ccc(OC)c(Nc2ncc(Cl)c(Nc3ccccc3C(=O)C(=O)N(C)C)n2)c1 [Example 126, N-(3-(5-chloro-4-(2-(2-(dimethylamino)-2-oxoactyl)phenylamino)pyrimidin-2-ylamino)-4-methoxyphenyl)-2-(((2-(dimethylamino)ethyl)(methyl)amino)methyl)acrylamide]	19	93	47	5	2	10	20	–	210	–	–	–	–	–	–
C=CC(=O)Nc1ccc(OC)c(Nc2ncc(Cl)c(Nc3ccccc3C(=O)C(=O)N(CC)CC)n2)c1 [Example 131, N-(3-(5-chloro-4-(2-(2-(diethylamino)-2-oxoacetyl)phenylamino)pyrimidin-2-ylamino)-4-methoxyphenyl)acrylamide]	9	104	104	82	27	10	50	–	750	–	–	–	–	–	–
N-(5-(5-chloro-4-(2-(2-(dimethylamino)-2-oxoactyl)phenylamino)pyrimidin-2-ylamino)-4-methoxy-2-(4-methylpiperazin-1-yl)phenyl)acrylamide [Example 74]	9	110	–	62	–	–	–	–	–	–	potent activity	50	30	620	50
